Experimental data from publication PMC4979471 (Cell Death Discovery, 2015).
Read-outs that look alike come from different tables or passages of the source.

Assays:
Experiment in all cases: Kinase selectivity, P33-radiolabeled assay
Type in all cases: biochemical
MNK1 = molecular target: T1, MNK1 (Homo sapiens, UniProt Q9BUB5); conditions: 10 μM ATP
T1 construct: purchased Reaction Biology Corp
How it was run: (§1)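 Activity relative to DMSO controls (%) was measured for compound at 10 μM. Assays ran at 10 μM ATP, in duplicate.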

EPHA8 = molecular target: T2, EPHA8 (Homo sapiens, UniProt P29322); conditions: 10 μM ATP
T2 construct: purchased Reaction Biology Corp
T2 sequence (P29322 28-1005): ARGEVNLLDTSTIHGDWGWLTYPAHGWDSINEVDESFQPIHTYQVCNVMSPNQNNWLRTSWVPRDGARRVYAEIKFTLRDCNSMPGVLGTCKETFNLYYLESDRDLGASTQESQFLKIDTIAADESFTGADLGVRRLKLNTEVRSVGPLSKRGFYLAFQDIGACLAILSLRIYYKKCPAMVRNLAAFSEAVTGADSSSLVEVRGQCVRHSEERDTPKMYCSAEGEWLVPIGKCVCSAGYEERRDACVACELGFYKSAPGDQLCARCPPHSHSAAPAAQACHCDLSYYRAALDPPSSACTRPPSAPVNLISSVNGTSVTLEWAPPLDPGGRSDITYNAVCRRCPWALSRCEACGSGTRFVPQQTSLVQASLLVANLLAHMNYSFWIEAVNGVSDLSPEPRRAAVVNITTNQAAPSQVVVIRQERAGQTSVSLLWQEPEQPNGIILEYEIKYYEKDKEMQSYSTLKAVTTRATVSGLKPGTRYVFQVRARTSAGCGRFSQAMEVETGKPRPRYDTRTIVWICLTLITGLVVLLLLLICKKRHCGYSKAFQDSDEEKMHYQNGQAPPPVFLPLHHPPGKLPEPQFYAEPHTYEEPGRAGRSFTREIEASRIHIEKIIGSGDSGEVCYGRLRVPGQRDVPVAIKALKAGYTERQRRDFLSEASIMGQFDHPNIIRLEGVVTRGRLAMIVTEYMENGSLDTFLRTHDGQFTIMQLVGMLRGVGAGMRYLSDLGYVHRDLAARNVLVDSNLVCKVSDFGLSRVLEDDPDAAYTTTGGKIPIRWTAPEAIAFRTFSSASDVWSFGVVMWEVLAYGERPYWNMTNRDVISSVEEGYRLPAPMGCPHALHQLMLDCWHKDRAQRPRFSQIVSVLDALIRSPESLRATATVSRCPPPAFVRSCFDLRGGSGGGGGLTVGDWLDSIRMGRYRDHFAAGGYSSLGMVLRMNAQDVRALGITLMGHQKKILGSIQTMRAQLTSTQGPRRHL
How it was run: as §1

AKT3 = molecular target: T3, AKT3 (Homo sapiens, UniProt Q9Y243); conditions: 10 μM ATP
T3 construct: purchased Reaction Biology Corp
T3 sequence (Q9Y243 whole entry): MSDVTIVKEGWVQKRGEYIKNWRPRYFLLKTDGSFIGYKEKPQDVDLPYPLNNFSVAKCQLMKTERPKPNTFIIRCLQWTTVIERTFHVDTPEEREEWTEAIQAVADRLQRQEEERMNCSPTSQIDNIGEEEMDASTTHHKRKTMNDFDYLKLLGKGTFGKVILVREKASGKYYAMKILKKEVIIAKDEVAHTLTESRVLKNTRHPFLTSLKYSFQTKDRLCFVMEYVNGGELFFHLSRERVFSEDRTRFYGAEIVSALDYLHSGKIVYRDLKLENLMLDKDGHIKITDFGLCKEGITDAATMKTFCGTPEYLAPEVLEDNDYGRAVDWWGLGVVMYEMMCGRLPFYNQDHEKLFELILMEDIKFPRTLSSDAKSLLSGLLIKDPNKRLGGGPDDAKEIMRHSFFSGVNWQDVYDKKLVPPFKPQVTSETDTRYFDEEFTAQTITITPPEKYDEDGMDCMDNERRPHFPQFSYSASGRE
How it was run: as §1

PAK3 = molecular target: T4, PAK3 (Homo sapiens, UniProt O75914); conditions: 10 μM ATP
T4 construct: purchased Reaction Biology Corp
T4 sequence (O75914 whole entry): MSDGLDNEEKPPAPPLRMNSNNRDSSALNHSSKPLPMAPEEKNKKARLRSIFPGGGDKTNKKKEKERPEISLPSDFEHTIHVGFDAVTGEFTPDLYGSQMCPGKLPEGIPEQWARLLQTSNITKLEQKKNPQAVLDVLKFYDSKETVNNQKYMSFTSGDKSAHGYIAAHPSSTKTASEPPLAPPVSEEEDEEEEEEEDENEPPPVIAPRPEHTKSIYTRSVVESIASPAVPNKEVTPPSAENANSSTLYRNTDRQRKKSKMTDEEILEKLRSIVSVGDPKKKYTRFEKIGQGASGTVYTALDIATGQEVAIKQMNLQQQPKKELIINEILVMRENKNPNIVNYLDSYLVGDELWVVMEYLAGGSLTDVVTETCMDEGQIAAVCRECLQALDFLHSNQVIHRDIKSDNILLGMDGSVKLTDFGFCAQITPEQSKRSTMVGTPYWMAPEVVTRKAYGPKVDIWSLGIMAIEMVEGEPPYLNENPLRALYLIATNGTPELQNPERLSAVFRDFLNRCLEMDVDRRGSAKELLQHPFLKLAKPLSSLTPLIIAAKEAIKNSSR
How it was run: as §1

PAK5 = molecular target: T5, PAK5 (Homo sapiens, UniProt Q9P286); conditions: 10 μM ATP
T5 construct: purchased Reaction Biology Corp
T5 sequence (Q9P286 whole entry): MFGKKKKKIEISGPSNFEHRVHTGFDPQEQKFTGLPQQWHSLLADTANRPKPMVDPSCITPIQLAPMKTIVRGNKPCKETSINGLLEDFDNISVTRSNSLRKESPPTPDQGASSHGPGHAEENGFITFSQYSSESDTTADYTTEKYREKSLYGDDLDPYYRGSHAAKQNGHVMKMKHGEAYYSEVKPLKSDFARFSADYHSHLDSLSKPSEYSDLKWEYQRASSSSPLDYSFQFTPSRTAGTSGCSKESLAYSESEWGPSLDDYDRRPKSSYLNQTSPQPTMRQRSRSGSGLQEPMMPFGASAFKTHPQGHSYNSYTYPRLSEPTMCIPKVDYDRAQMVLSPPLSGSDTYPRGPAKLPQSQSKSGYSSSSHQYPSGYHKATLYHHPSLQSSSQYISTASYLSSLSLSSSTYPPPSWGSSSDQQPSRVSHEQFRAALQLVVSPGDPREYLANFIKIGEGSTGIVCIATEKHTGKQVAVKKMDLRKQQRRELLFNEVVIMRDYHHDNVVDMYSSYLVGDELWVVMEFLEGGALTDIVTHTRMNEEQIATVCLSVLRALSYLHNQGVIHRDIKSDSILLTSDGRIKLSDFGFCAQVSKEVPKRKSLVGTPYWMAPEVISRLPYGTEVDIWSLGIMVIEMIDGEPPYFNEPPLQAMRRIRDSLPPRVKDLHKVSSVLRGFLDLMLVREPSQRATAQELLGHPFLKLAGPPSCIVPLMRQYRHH
How it was run: as §1

ERK1 = molecular target: T6, ERK1 (Homo sapiens, UniProt P27361); conditions: 10 μM ATP
T6 construct: purchased Reaction Biology Corp
T6 sequence (P27361 whole entry): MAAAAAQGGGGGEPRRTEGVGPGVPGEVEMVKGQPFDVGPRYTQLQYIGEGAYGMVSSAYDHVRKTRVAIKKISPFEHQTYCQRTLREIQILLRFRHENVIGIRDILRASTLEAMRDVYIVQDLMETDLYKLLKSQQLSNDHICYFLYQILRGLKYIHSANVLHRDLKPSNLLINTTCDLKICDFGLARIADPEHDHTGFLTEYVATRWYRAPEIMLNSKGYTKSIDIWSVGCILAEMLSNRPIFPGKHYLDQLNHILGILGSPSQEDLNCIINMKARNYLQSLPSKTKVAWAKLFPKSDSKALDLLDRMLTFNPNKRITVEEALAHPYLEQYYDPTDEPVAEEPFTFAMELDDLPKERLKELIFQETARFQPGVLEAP
How it was run: as §1

PAK4 = molecular target: T7, PAK4 (Homo sapiens, UniProt O96013); conditions: 10 μM ATP
T7 construct: purchased Reaction Biology Corp
T7 sequence (O96013 whole entry): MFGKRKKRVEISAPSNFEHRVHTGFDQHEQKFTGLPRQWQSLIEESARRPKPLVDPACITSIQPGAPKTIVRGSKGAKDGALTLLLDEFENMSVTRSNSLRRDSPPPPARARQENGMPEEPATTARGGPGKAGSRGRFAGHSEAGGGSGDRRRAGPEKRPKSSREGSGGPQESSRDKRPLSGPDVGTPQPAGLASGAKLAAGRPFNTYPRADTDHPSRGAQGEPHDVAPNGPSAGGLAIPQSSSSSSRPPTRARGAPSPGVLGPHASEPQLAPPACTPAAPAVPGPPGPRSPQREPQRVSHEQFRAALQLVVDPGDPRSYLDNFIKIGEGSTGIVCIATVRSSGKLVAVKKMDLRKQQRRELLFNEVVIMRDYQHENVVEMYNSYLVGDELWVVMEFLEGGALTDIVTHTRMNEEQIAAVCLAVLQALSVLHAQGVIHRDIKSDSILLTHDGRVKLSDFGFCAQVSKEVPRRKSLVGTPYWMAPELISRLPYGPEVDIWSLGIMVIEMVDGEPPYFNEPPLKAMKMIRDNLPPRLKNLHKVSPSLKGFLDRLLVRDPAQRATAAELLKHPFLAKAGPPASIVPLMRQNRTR
How it was run: as §1

PKCd = molecular target: T8, PKCd (Homo sapiens, UniProt Q05655); conditions: 10 μM ATP
T8 construct: purchased Reaction Biology Corp
T8 sequence (Q05655 whole entry): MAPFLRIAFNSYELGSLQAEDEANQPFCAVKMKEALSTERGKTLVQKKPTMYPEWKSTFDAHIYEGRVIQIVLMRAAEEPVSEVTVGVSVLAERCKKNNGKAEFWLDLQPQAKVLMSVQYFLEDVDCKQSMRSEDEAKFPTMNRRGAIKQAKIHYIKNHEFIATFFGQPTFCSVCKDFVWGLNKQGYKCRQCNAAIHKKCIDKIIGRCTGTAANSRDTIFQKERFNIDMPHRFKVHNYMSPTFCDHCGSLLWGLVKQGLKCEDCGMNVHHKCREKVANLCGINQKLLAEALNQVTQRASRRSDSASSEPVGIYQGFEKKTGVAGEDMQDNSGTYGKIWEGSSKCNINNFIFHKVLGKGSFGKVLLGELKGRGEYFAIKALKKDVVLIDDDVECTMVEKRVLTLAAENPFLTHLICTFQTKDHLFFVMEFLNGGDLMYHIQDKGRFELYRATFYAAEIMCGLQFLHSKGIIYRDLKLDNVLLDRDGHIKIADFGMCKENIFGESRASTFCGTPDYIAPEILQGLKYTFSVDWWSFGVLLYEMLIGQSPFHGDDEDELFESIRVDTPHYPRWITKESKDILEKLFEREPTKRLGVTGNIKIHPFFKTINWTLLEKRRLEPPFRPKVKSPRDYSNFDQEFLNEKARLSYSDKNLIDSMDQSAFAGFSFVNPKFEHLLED
How it was run: as §1

TSSK3/STK22C = molecular target: T9, TSSK3/STK22C (Homo sapiens, UniProt Q96PN8); conditions: 10 μM ATP
T9 construct: purchased Reaction Biology Corp
T9 sequence (Q96PN8 1-268): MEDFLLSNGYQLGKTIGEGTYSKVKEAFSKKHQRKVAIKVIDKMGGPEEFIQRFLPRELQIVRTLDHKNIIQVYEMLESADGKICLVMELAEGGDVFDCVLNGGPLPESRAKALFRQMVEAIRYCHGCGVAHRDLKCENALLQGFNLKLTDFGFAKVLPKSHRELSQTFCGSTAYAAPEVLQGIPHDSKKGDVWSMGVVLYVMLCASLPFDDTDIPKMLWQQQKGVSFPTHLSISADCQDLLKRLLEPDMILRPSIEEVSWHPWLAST
How it was run: as §1

Aurora A = molecular target: T10, Aurora A (Homo sapiens, UniProt O14965); conditions: 10 μM ATP
T10 construct: purchased Reaction Biology Corp
T10 sequence (O14965 1-403): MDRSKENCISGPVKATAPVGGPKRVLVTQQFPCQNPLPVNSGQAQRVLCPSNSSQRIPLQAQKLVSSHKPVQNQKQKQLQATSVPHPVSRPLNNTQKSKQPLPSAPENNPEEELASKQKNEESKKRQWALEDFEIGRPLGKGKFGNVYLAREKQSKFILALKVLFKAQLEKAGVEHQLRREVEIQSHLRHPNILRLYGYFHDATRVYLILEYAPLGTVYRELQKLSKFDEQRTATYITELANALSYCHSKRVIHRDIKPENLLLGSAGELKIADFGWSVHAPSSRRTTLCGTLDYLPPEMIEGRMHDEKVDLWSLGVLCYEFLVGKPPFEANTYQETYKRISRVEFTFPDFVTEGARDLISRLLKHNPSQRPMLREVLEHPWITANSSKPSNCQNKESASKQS
How it was run: as §1

NEK7 = molecular target: T11, NEK7 (Homo sapiens, UniProt Q8TDX7); conditions: 10 μM ATP
T11 construct: purchased Reaction Biology Corp
How it was run: as §1

WEE1 = molecular target: T12, WEE1 (Homo sapiens, UniProt P30291); conditions: 10 μM ATP
T12 construct: purchased Reaction Biology Corp
T12 sequence (P30291 whole entry): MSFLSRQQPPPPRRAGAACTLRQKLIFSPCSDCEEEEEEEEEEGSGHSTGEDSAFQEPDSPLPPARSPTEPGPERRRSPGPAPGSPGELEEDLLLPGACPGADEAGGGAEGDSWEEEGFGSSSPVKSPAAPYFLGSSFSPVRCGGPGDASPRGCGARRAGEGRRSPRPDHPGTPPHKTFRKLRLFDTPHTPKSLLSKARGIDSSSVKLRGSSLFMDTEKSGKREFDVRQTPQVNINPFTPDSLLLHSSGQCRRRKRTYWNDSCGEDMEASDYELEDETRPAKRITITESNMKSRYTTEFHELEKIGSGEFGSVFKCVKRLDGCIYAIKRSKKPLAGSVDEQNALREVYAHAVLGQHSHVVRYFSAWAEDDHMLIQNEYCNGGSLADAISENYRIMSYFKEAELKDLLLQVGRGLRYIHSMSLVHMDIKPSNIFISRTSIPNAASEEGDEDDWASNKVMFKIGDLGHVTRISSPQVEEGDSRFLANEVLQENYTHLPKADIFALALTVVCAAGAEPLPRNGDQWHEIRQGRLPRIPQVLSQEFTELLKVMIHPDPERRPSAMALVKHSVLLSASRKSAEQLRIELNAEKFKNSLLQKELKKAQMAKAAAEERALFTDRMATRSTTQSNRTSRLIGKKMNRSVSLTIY
How it was run: as §1

Aurora B = molecular target: T13, Aurora B (Homo sapiens, UniProt Q96GD4)
T13 construct: purchased Reaction Biology Corp
T13 sequence (Q96GD4 whole entry): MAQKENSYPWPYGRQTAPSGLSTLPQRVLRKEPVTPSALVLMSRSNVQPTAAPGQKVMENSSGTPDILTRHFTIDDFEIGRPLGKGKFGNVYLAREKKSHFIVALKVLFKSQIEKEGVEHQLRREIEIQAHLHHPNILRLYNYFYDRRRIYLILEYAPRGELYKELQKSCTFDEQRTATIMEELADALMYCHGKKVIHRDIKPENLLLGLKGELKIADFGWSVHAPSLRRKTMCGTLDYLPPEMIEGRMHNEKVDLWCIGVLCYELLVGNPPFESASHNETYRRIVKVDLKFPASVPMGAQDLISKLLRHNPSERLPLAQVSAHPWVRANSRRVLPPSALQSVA
How it was run: as §1

[1] = read-out: % Enzyme Activity (relative to DMSO controls) AVG
[2] = read-out: % Enzyme Activity (relative to DMSO controls) Data 1
[3] = read-out: % Enzyme Activity (relative to DMSO controls) Data 2

T1 sequence (Q9BUB5 whole entry): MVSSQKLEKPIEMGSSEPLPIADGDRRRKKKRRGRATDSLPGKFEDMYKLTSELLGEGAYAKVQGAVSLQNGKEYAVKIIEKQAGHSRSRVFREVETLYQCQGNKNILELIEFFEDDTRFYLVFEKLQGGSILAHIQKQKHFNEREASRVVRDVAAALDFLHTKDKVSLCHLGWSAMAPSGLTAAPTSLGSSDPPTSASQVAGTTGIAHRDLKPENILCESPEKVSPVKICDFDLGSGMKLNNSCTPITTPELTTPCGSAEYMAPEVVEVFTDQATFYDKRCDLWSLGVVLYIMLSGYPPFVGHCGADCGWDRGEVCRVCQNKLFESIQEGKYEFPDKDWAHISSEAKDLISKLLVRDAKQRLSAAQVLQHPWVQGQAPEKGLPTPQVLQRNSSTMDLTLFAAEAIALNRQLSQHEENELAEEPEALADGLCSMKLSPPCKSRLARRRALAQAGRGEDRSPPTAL

With `CC(C)(C)C(=O)N1N=CC[C@H]1c1ccccc1` [GSK′963] the remaining activity at 10 µM (MNK1; [1]) was 117%, the remaining activity at 10 µM (MNK1; [2]) was 111% and the remaining activity at 10 µM (MNK1; [3]) was 122%. For the same compound, the remaining activity at 10 µM (EPHA8; [1]) was 96.6%, the remaining activity at 10 µM (EPHA8; [2]) was 97.5% and the remaining activity at 10 µM (EPHA8; [3]) was 95.7%. For the same compound, the remaining activity at 10 µM (AKT3; [1]) was 102%, the remaining activity at 10 µM (AKT3; [2]) was 100% and the remaining activity at 10 µM (AKT3; [3]) was 103%. It also gave a remaining activity at 10 µM (PAK3; [1]) of 103%, a remaining activity at 10 µM (PAK3; [2]) of 102% and a remaining activity at 10 µM (PAK3; [3]) of 105%. The remaining activity at 10 µM (PAK5; [1]) was 124%, the remaining activity at 10 µM (PAK5; [2]) was 119% and the remaining activity at 10 µM (PAK5; [3]) was 128%. For the same compound, the remaining activity at 10 µM (ERK1; [1]) was 102%, the remaining activity at 10 µM (ERK1; [2]) was 98.8% and the remaining activity at 10 µM (ERK1; [3]) was 104%. For the same compound, the remaining activity at 10 µM (PAK4; [1]) was 93%, the remaining activity at 10 µM (PAK4; [2]) was 95.4% and the remaining activity at 10 µM (PAK4; [3]) was 90.5%. It also gave a remaining activity at 10 µM (PKCd; [1]) of 106%, a remaining activity at 10 µM (PKCd; [2]) of 106% and a remaining activity at 10 µM (PKCd; [3]) of 107%. For the same compound, the remaining activity at 10 µM (TSSK3/STK22C; [1]) was 131%, the remaining activity at 10 µM (TSSK3/STK22C; [2]) was 129% and the remaining activity at 10 µM (TSSK3/STK22C; [3]) was 133%. For the same compound, the remaining activity at 10 µM (Aurora A; [1]) was 102%, the remaining activity at 10 µM (Aurora A; [2]) was 101% and the remaining activity at 10 µM (Aurora A; [3]) was 102%. For the same compound, the remaining activity at 10 µM (NEK7; [1]) was 98.6%, the remaining activity at 10 µM (NEK7; [2]) was 98.1% and the remaining activity at 10 µM (NEK7; [3]) was 99%. For the same compound, the remaining activity at 10 µM (WEE1; [1]) was 85.6%, the remaining activity at 10 µM (WEE1; [2]) was 81.9% and the remaining activity at 10 µM (WEE1; [3]) was 89.2%. For the same compound, the remaining activity at 10 µM (Aurora B; 10 uM, 10 μM ATP, read-out: % Enzyme Activity (relative to DMSO controls) Data 1) was 104%, the remaining activity at 10 µM (Aurora B; 10 uM, 10 μM ATP, read-out: % Enzyme Activity (relative to DMSO controls) Data 2) was 98.7% and the remaining activity at 10 µM (Aurora B; [1]) was 101%.
